Experiments:
[1] = test system: mouse colorectal cancer cell line CT26; assay: Anti-tumor effect in allograft model of mouse colorectal cancer cell line CT26; assay type: in vivo; conditions: 10 mg/kg orally, twice a day, Balb/C mouse, 21 days from transplant
Method: The anti-tumor effect of the present compound was evaluated in an allograft model of the mouse colorectal cancer cell line CT26. CT26 was cultured in a CO2 incubator, using an RPMI-1640 medium containing 10 vol % inactivated fetal bovine serum (FBS), 100 units/mL of penicillin, and 100 µg/mL of streptomycin. On the day of transplant, CT26 was harvested after removing the culture supernatant, and washing the cells with phosphate buffer (hereinafter, “PBS”). The harvested CT26 cells were suspended in Hank's buffer to obtain transplant cells. The transplant cells (3×10^5) were then subcutaneously transplanted to the right back of a female Balb/C mouse (Charles River Laboratories Japan Inc.) under anesthesia. The present compound was orally administered in a dose of 10 mg/kg, once on the day of transplant, and twice a day from the next day. For the control group, distilled water was administered for the same duration as in the present compound-administered group. The tumor volume (mm^3) was determined by calculating a relative tumor volume from the measured tumor lengths along the minor axis and major axis using a digital caliper, according to the following formulae 1 and 2. Tumor volume=[(minor axis)^2×major axis]/2 Relative tumor volume=medium value of tumor volumes of each group after 21 days from transplant/medium value of tumor volume of control group after 21 days from transplant

rat EP4 receptor = rat EP4 receptor (Rattus norvegicus (Rat), UniProt P43114); assay: EP4 antagonistic activity measurement using prostanoid receptor subtype expressing cells (cAMP); assay type: cell-based; conditions: CHO cells expressing rat EP4 receptor; inhibition of cAMP production by PGE2 10 nM
Chain of rat EP4 receptor (P43114 whole entry): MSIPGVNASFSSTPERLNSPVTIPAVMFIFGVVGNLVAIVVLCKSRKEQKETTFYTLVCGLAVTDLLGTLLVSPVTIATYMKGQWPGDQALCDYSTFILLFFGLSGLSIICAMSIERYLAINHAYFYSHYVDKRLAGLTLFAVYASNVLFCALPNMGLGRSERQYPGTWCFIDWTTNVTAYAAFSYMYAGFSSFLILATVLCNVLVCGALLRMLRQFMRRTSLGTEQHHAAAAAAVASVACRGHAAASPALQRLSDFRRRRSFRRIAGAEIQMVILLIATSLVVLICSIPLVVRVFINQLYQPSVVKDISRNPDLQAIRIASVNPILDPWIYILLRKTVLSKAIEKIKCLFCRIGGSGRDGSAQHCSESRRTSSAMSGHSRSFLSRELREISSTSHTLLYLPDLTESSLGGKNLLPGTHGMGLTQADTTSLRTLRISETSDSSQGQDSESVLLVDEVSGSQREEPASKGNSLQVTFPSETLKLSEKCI
Method: CHO cells expressing rat EP4 receptor subtypes were prepared according to the methods of Nishigaki et al. (FEBS Letters, Vol. 364, p. 339-341, 1995), and used for experiment. Cultured subconfluent cells were detached, and suspended in an assay medium (MEM containing 1 mmol/L IBMX, 1% HSA) in a concentration of 1×10^6 cells/mL. For reaction, PGE2 was added to the cell suspension (25 μL) in a final concentration of 10 nmol/L, either alone or as a 25-μL PGE2 solution containing the test compound. After 30 minutes of reaction at room temperature, the amount of cAMP in the cells was quantified according to the method in the descriptions of the cAMP assay kit (CISBIO).
The antagonistic effect (IC50 value) of the test compound was calculated as a value that represents an inhibition rate against a reaction with PGE2 alone at 10 nM, a concentration that produces a submaximal cAMP producing effect.

[2] = Pharmacokinetics test (hepatic microsome stability test); conditions: human hepatic microsome 1 mg/mL, 37° C., 60 min, 1 μmol/L

| Structure (SMILES) | IC50 (rat EP4 receptor) [nM] | Remaining rate (%) [2] [%] | tumor growth inhibitory effect (relative tumor volume, FIG. 1) [1] |
| --- | --- | --- | --- |
| COCCNC(=O)c1ccc2c(c1)[C@]1(CCO2)C[C@H]1C(=O)Nc1cc(C#N)ccc1CCCC(=O)O [Example 2-2, 4-{4-Cyano-2-[({(2′R,4S)-6-[(2-methoxyethyl)carbamoyl]-2,3-dihydrospiro[chromene-4,1′-cyclopropan]-2′-yl}carbonyl)amino]phenyl}butanoic acid] | 5.3 | 97 | tumor growth inhibitory effect |
| CC(C)NC(=O)c1ccc2c(c1)[C@]1(CCO2)C[C@H]1C(=O)Nc1cc(C#N)ccc1CCCC(=O)O [Example 2-13, 4-[4-Cyano-2-({[(2′R,4S)-6-(isopropylcarbamoyl)-2,3-dihydrospiro[chromene-4,1′-cyclopropan]-2′-yl]carbonyl}amino)phenyl]butanoic acid] | 7.8 | 100 | tumor growth inhibitory effect |
| COCCNC(=O)c1ccc2c(c1)[C@]1(CO2)C[C@H]1C(=O)Nc1cc(C#N)ccc1CCCC(=O)O [Example 37-2, 4-{4-Cyano-2-[({(2′R,3S)-5-[(2-methoxyethyl)carbamoyl]spiro[1-benzofuran-3,1′-cyclopropan]-2′-yl}carbonyl)amino]phenyl}butanoic acid] | 6.2 | 87 | – |
| COCCNC(=O)c1ccc2c(c1)[C@@]1(C[C@H]1C(=O)Nc1cc(C#N)ccc1CCCC(=O)O)CC2(C)C [Example 38-1, 4-[4-Cyano-2-({[(1S,2R)-6′-[(2-methoxyethyl)carbamoyl]-3′,3′-dimethyl-2′,3′-dihydrospiro[cyclopropane-1, 1′-inden]-2-yl]carbonyl}amino)phenyl]butanoic acid] | 5.4 | 69 | – |

Continued, in another order:

| IC50 (rat EP4 receptor) [nM] | Remaining rate (%) [2] [%] | Structure (SMILES) | tumor growth inhibitory effect (relative tumor volume, FIG. 1) [1] |
| --- | --- | --- | --- |
| 4.3 | 89 | CNC(=O)c1ccc2c(c1)[C@@]1(C[C@H]1C(=O)Nc1cc(C#N)ccc1CCCC(=O)O)CC2(C)C [Example 38-2, 4-[4-Cyano-2-({[(1S,2R)-3′,3′-dimethyl-6′-(methylcarbamoyl)-2′,3′-dihydrospiro[cyclopropane-1, 1′-inden]-2-yl]carbonyl}amino)phenyl]butanoic acid] | – |
| 5.7 | 78 | CC1(C)C[C@]2(C[C@H]2C(=O)Nc2cc(C#N)ccc2CCCC(=O)O)c2cc(-c3cccnc3)ccc21 [Example 39, 4-[4-Cyano-2-({[(1S,2R)-3′,3′-dimethyl-6′-(3-pyridinyl)-2′,3′-dihydrospiro[cyclopropane-1,1′-inden]-2-yl]carbonyl}amino)phenyl]butanoic acid] | – |

From patent US10077247B2, “Tricyclic spiro compound” (ONO PHARMACEUTICAL CO., LTD., priority 2015, dated 2018)
